Measured values from patent publication US20250170112A1, “ADENOSINE LIGANDS FOR THE TREATMENT OF NEUROLOGICAL DISORDERS” (Lucy Therapeutics, Inc., priority 2022, published 2025).

How the values were obtained:
[1] = molecular target: T1, human Adenosine A1 receptor (Homo sapiens, UniProt P30542); assay: GTPγS scintillation proximity assay, agonist testing; type: biochemical; settings: agonist activity; membrane extracts of CHO-K1 cells expressing recombinant human A1; read-out: A1AR EC50
T1 construct: host or cells: CHO-K1
T1 sequence (P30542 1-326): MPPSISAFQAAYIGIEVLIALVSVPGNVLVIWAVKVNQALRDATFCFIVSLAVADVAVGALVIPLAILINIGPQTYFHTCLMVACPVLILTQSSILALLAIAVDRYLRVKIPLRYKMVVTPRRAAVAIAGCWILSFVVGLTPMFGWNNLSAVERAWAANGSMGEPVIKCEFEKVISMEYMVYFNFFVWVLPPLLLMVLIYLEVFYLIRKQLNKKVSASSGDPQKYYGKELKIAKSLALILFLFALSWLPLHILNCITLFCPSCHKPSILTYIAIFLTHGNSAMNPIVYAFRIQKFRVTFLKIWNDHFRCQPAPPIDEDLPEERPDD
In short: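 Agonist-stimulated [35S]GTPγS binding to membranes of CHO-K1 cells expressing recombinant human A1 receptor, in 20 mM HEPES pH 7.4, 100 mM NaCl, 10 μg/mL saponin, with receptor-optimized MgCl2 and GDP. GTPγ[35S] 0.1 nM final with WGA SPA beads; 1 h at room temperature, then scintillation counting.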

[2] = molecular target: T2, human A2B (Homo sapiens, UniProt P29275); assay: cAMP HTRF assay for Gs coupled receptor, agonist test; type: cell-based; settings: agonist activity; HEK293 cells expressing recombinant human A2B; read-out: A2BAR EC50
T2 construct: expressed in transfected cells; host or cells: HEK293
T2 sequence (P29275 1-332): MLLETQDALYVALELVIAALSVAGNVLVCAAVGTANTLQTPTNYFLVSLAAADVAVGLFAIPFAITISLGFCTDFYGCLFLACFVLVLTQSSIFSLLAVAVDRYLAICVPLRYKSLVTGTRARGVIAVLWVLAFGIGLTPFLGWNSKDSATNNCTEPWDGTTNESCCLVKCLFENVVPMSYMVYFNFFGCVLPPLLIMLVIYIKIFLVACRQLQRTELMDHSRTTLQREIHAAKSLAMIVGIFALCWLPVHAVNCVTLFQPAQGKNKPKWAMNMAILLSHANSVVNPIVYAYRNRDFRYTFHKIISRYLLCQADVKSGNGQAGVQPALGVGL
In short: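 Recombinant cells were incubated 30 min at room temperature with increasing agonist concentrations. Lysis buffer with cAMP-d2 and anti-cAMP cryptate was added, with 1 h at room temperature before the HTRF fluorescence ratio was read. Reference compounds were run in parallel.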

| Compound | EC50 [1] | EC50 [2] |
| --- | --- | --- |
| COCCOc1ccc(-c2c(C#N)c(SCc3cccnc3)nc(N3CC(O)C3)c2C#N)cc1 [Compound 278] | 13.9 nM | > 10000 nM |
| COCCOc1ccc(-c2c(C#N)c(OC)nc(SCc3cccnc3)c2C#N)cc1 [Compound 283] | > 10000 nM | > 10000 nM |
| COCCOc1ccc(-c2c(C#N)c(N)nc(SCC3CCOC3)c2C#N)cc1 (centres unmarked) [Compound 36] | 124 nM | > 10000 nM |
| COc1nc(SCc2cccnc2)c(C#N)c(-c2ccc(OCCO)cc2)c1C#N [Compound 282] | 61.5 nM | 20 nM |
| N#Cc1c(N)nc(SCCOC(F)F)c(C#N)c1-c1ccc(OCCO)cc1 [Compound 93] | 109 nM | 64 nM |
| COCCOc1ccc(-c2c(C#N)c(N)nc(SCc3ccnc4[nH]ccc34)c2C#N)cc1 [Compound 4] | > 10000 nM | 2410 nM |
| Cc1ncccc1CSc1nc(N2CCC2)c(C#N)c(-c2ccc(OCCO)cc2)c1C#N [Compound 77] | > 10000 nM | 2230 nM |
| Cc1ncccc1CSc1nc(N2CCCC2)c(C#N)c(-c2ccc(OCCO)cc2)c1C#N [Compound 76] | > 10000 nM | 4370 nM |
| COCCOc1ccc(-c2c(C#N)c(SCc3cccnc3)nc(N3CC(F)(F)C3)c2C#N)cc1 [Compound 276] | 98.8 nM | > 10000 nM |
| N#Cc1c(N)nc(SCC2COC2)c(C#N)c1-c1ccc(OCCO)cc1 [Compound 223] | 1.5 nM | 401 nM |
| N#Cc1c(N)nc(SCc2cccc3[nH]ccc23)c(C#N)c1-c1ccc(OC2COC2)cc1 [Compound 22, 2-Amino-6-(1H-indol-4-ylmethylsulfanyl)-4-[4-(oxetan-3-yloxy)phenyl]pyridine-3,5-dicarbonitrile] | 3.5 nM | > 10000 nM |
| COCCOc1ccc(-c2c(C#N)c(N)nc(SCc3cncnc3)c2C#N)cc1 [Compound 198] | 80 nM | > 10000 nM |
| CC1(CSc2nc(N)c(C#N)c(-c3ccc(OC4COC4)cc3)c2C#N)COC1 [Compound 226] | 22 nM | > 10000 nM |
| CCOCCSc1nc(N)c(C#N)c(-c2ccc(OCCOC)cc2)c1C#N [Compound 34] | 245 nM | > 10000 nM |
| N#Cc1c(SCc2cccnc2)nc(N2CCC2)c(C#N)c1-c1ccc(OCCOC(F)F)cc1 [Compound 262] | > 10000 nM | > 10000 nM |
| N#Cc1c(N)nc(SCc2cccc3[nH]cnc23)c(C#N)c1-c1ccc(OCCO)cc1 [Compound 5] | > 10000 nM | 13.4 nM |
| N#Cc1c(N)nc(SC[C@H]2CCOC2)c(C#N)c1-c1ccc(OC2COC2)cc1 [Compound 225] | 0.75 nM | 118 nM |
| CC1(CSc2nc(N)c(C#N)c(-c3ccc(OC4COC4)cc3)c2C#N)COC1 [Compound 327] | 22.1 nM | > 10000 nM |
| COCCOc1ccc(-c2c(C#N)c(N)nc(SCc3cccc4[nH]ccc34)c2C#N)cc1 [Compound 67] | 17.6 nM | > 10000 nM |
| N#Cc1c(N)nc(SCc2cccc3[nH]ncc23)c(C#N)c1-c1ccc(OCCO)cc1 [Compound 15] | 1050 nM | 142 nM |
| CNc1nc(SCc2cccnc2)c(C#N)c(-c2ccc(OC(F)(F)CO)cc2)c1C#N [Compound 260] | 3.38 nM | 33.7 nM |
| N#Cc1c(SCc2cccnc2)nc(N2CC(F)C2)c(C#N)c1-c1ccc(OC(F)(F)CO)cc1 [Compound 255] | > 10000 nM | 435 nM |
| COCCOc1ccc(-c2c(C#N)c(N)nc(SCCO)c2C#N)cc1 [Compound 192] | 25 nM | > 10000 nM |
| N#Cc1c(N)nc(SCc2cccc3[nH]ccc23)c(C#N)c1-c1ccc(OC2CCOC2)cc1 (centres unmarked) [Compound 221] | > 10000 nM | > 10000 nM |
| CC(C)(O)COc1ccc(-c2c(C#N)c(SCc3cccnc3)nc(N3CCCC3)c2C#N)cc1 [Compound 50] | 294 nM | 94.2 nM |
| COCCOc1ccc(-c2c(C#N)c(N)nc(SCC(N)=O)c2C#N)cc1 [Compound 136] | 768 nM | 87 nM |
| N#Cc1c(N)nc(SCc2ccnc3[nH]ccc23)c(C#N)c1-c1ccc(OCCO)cc1 [Compound 14] | 29.2 nM | 81.7 nM |
| COCCOc1ccc(-c2c(C#N)c(N)nc(SCC3COC3)c2C#N)cc1 [Compound 123] | 72 nM | > 10000 nM |

| Compound | EC50 [1] | EC50 [2] |
| --- | --- | --- |
| COCCOc1ccc(-c2c(C#N)c(C)nc(N)c2C#N)cc1 [Compound 39, 2-Amino-4-[4-(2-methoxyethoxy)phenyl]-6-methyl-pyridine-3,5-dicarbonitrile] | 862 nM | > 10000 nM |
| N#Cc1c(N)nc(SCCO)c(C#N)c1-c1ccc(OCCO)cc1 [Compound 177] | 57 nM | 18 nM |
| CN(Cc1cccnc1)c1nc(N)c(C#N)c(-c2ccc(OCCO)cc2)c1C#N [Compound 160] | 130 nM | 56 nM |
| N#Cc1c(N)nc(OCCC2COC2)c(C#N)c1-c1ccc(OC2COC2)cc1 [Compound 307] | > 10000 nM | > 10000 nM |
| N#Cc1c(N)nc(SCc2cccnc2)c(C#N)c1-c1ccc(O[C@H]2CCOC2)cc1 [Compound 240] | 0.903 nM | 0.335 nM |
| N#Cc1c(SCc2cccnc2)nc(N2CCCC2)c(C#N)c1-c1ccc(OC(F)(F)CO)cc1 [Compound 263] | > 10000 nM | > 10000 nM |
| N#Cc1c(N)nc(SCc2cccnn2)c(C#N)c1-c1ccc(OCCOC(F)F)cc1 [Compound 237] | 1.62 nM | 5360 nM |
| N#Cc1c(SCC2COC2)nc(N2CCC2)c(C#N)c1-c1ccc(OCCO)cc1 [Compound 63, 2-(Azetidin-1-yl)-4-[4-(2-hydroxyethoxy)phenyl]-6-(oxetan-3-ylmethylsulfanyl)pyridine-3,5-dicarbonitrile] | 91 nM | 2960 nM |
| N#Cc1c(SCc2cccnn2)nc(N2CCC2)c(C#N)c1-c1ccc(OCCO)cc1 [Compound 20] | 14.1 nM | 3 nM |
| CNC(=O)CSc1nc(N2CCCC2)c(C#N)c(-c2ccc(OCCOC)cc2)c1C#N [Compound 79] | 1790 nM | 45 nM |
| COc1nc(SCC2COC2)c(C#N)c(-c2ccc(OCCO)cc2)c1C#N [Compound 281] | 827 nM | > 10000 nM |
| CNC(=O)CSc1nc(N)c(C#N)c(-c2ccc(OCCOC)cc2)c1C#N [Compound 146] | 177 nM | 59 nM |
| COCCOc1ccc(-c2c(C#N)c(N)nc(SCCC#N)c2C#N)cc1 [Compound 122] | 1020 nM | > 10000 nM |
| N#Cc1c(N)nc(SCC2COC2)c(C#N)c1-c1ccc(O[C@H]2C[C@H](O)C2)cc1 [Compound 303] | 78.5 nM | > 10000 nM |
| N#Cc1cnc(SCc2cccnc2)c(C#N)c1-c1ccc(OC2COC2)cc1 [Compound 18] | 69.5 nM | 299 nM |
| COCCOc1ccc(-c2c(C#N)c(SCC3COC3)nc(N3CC(F)(F)C3)c2C#N)cc1 [Compound 269] | 615 nM | > 10000 nM |
| N#CCCSc1nc(N)c(C#N)c(-c2ccc(OCCO)cc2)c1C#N [Compound 121] | 327 nM | 576 nM |
| CC(Sc1nc(N)c(C#N)c(-c2ccc(OC3COC3)cc2)c1C#N)C1COC1 (centres unmarked) [Compound 285] | 958 nM | > 10000 nM |
| N#Cc1c(N)nc(SCC(N)=O)c(C#N)c1-c1ccc(OCCO)cc1 [Compound 129] | 121 nM | 6 nM |
| N#Cc1c(SCc2cccnc2)nc(N2CC(O)C2)c(C#N)c1-c1ccc(OCCOC(F)F)cc1 [Compound 265] | 12.5 nM | > 10000 nM |
| CNCCSc1nc(N)c(C#N)c(-c2ccc(OCCO)cc2)c1C#N [Compound 128] | > 10000 nM | 255 nM |
| N#Cc1c(N)nc(SCc2cccnc2)c(C#N)c1-c1ccc(OCCO)cc1 [Compound 183] | 2 nM | 0.1 nM |
| COCCOc1ccc(-c2c(C#N)c(SCc3cccnn3)nc(C3CC3)c2C#N)cc1 [Compound 233] | > 10000 nM | > 10000 nM |
| N#Cc1c(N)nc(SCC2COC2)c(C#N)c1-c1ccc(OC2CCCOC2)cc1 (centres unmarked) [Compound 308] | > 10000 nM | 5570 nM |
| CC(O)COc1ccc(-c2c(C#N)c(N)nc(SCc3cccnc3)c2C#N)cc1 (centres unmarked) [Compound 56, 2-Amino-4-[4-(2-hydroxy-propoxy)phenyl]-6-(3-pyridylmethylsulfanyl)pyridine-3,5-dicarbonitrile] | 8.6 nM | 0.08 nM |
| N#Cc1c(SCCC(F)(F)F)nc(N2CCCC2)c(C#N)c1-c1ccc(OCCO)cc1 [Compound 104] | 1790 nM | > 10000 nM |
| N#Cc1c(N)nc(SCC2CCCOC2)c(C#N)c1-c1ccc(OCCO)cc1 (centres unmarked) [Compound 13] | > 10000 nM | 272 nM |
